Drawing on PubChem BioAssay AID1902 (Broad Institute, 2009), this text covers EC50 for 95 molecules.

The structures appear in SMILES notation. Activity calls are given as the source filed them.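 The calls were made as follows: active = EC50 no more than a set limit of log units above the highest dose; inactive = the rest.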

In the experiment the target is S. pyogenes SKKanGAS, kanamycin survival, BacTiterGlo, 6 h. Put plainly: S. pyogenes SKKanGAS kanamycin growth inhibitors – SKKanGAS strain, luminescence, dose confirmation, streptokinase promoter inhibitor project, dose response (AID 1902).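 Also: lower survival reflects blocked streptokinase promoter driving kanamycin resistance gene.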
For orientation: EC50 means the concentration needed to bring the measured effect to its halfway point. Take `CC(C)Sc1cc(N2CCCC2)nc(-c2ccc(F)cc2)n1`: the EC50 is 5.9 µM. On to `Cc1cccc(/C=C/C(=O)c2ccc([N+](=O)[O-])o2)c1`, for which the EC50 is 4.81 µM. With `COc1cc(/C=C2/SC(=S)N(Cc3ccccc3)C2=O)ccc1O`, the 50% effective concentration (EC50) is 5.8 µM.

Turning to `COc1cc(/C=C2/SC(=S)N(Cc3ccccc3)C2=O)cc(Cl)c1O`, the EC50 was 2.58 µM. For the molecule `Cc1csc2c(N3CCN(C(=O)Nc4ccc(Cl)c(Cl)c4)CC3)ncnc12`, the 50% effective concentration (EC50) is 2.99 µM. The figure for `NC1CCN(c2c(F)cc3c(=O)c(C(=O)O)cn(C4CC4)c3c2Cl)C1` (stereo not given) is 0.064 µM; for `COc1cccc(N=Nc2c(N)[nH]n3c(=O)cc(-c4ccccc4)nc23)c1` it is 1.79 µM; for `CC1(C)Oc2ccc3ccc(=O)oc3c2/C(=C/NNC(N)=S)C1=O` it is 7.51 µM. Next, `CC(C)(C)Nc1nc(-c2ccccn2)nc2ccccc12`: 0.215 µM.

Turning to `O=C(O)c1ccc(N/N=C/c2ccc(OC(=O)c3ccccc3Cl)cc2)cc1`, the 50% effective concentration (EC50) was 5.02 µM. `Cn1c2ccccc2c(=O)c2c(=O)n(C3CCCCC3)c(-c3cccs3)nc21`: the EC50 is 7.03 µM. Regarding `CCn1cnc2sc(C(=O)Oc3cccc(C)c3)c(C)c2c1=O`, the EC50 is 4.08 µM. As to `COC(=O)c1c(NC(NC(=O)C(C)(C)C)C(Cl)(Cl)Cl)sc2c1CCC2` (stereo not given), the EC50 is 3.28 µM. Next, `Cc1cc(C(C)(C)C)cc(C)c1COC(=O)c1cccnc1`: 3.25 µM. For `CCc1ccc(NC(=O)c2ccc(F)c(S(=O)(=O)NCC3COc4ccccc4O3)c2)cc1` (stereo not given), the EC50 was 5.34 µM.

`CC(C)(C)c1ccc(C(=O)CC(=O)c2cc(Cl)ccc2O)cc1`: the EC50 was 0.349 µM. Consider `C=CCn1c(N)c(C(=O)Nc2cccc(C)c2)c2nc3ccccc3nc21`, for which the EC50 is 3.4 µM.

Turning to `CCC(=O)Nc1nc2ccccc2n1Cc1ccccc1C`, the half-maximal effective concentration (EC50) is 1.62 µM. Consider `CC(=O)N(C1=C(Cl)C(=O)c2ccccc2C1=O)C1CCCCC1`, for which the concentration giving a half-maximal response (EC50) is 9.36 µM. As for `CC(OC(=O)Cc1n[nH]c(=O)c2ccccc12)C(=O)Nc1ccc(Cl)cn1` (stereo not given), the EC50 was 14.7 µM. For `COc1cc2ccccc2cc1C(=O)NC(=S)Nc1ccc(C(=O)O)cc1`, the EC50 is 4.44 µM. As for `O=C(Nc1nnc(-c2ccc(Br)cc2)o1)c1cccc(N2C(=O)CCC2=O)c1`, the half-maximal effective concentration (EC50) was 1.35 µM.

Regarding `Cc1ccsc1C(=O)OCC(=O)c1cc2ccccc2o1`, the EC50 was > 15 µM (inactive).

Regarding `O=C(O)c1ccccc1-c1ccccc1C(=O)Nc1ccc(-c2nc3cc(Cl)ccc3o2)cc1`, the EC50 was 5.3 µM. For `CC1CCN(c2ccccc2NC(=O)c2ccc(Br)o2)CC1`, the EC50 was 5.29 µM.

With `Cc1cccc(C)c1OC(=O)C(c1ccccc1)c1ccccc1`, the half-maximal effective concentration (EC50) was 3.17 µM.

Consider `O=C(/C=C/c1ccccc1)NC(=S)NNC(=O)c1ccco1`, for which the half-maximal effective concentration (EC50) was 2.76 µM.

Regarding `COc1ccccc1OCCCn1c(C)c(C#N)c2ccccc21`, the EC50 was 7.08 µM. Regarding `CN1CCN(C(c2ccc(C(F)(F)F)cc2)c2cc(Cl)c3cccnc3c2O)CC1` (stereo not given), the EC50 is 0.682 µM. As for `COc1ccc([N+](=O)[O-])cc1NC(=S)NC(NC(=O)C(c1ccccc1)c1ccccc1)C(Cl)(Cl)Cl` (stereo not given), the EC50 is 12 µM. In the case of `Cc1noc(NS(=O)(=O)c2ccc(NC(=O)c3oc4ccc(Cl)cc4c3C)cc2)c1C`, the EC50 is 6.63 µM. Consider `N#Cc1ccc(-c2ccccc2)nc1SCC(=O)c1cc2ccccc2oc1=O`, for which the half-maximal effective concentration (EC50) is 0.596 µM.

For the molecule `O=C(Nc1nnc(-c2ccc(Cl)cc2)o1)c1ccccc1Br`, the concentration for a half-maximal effect (EC50) is 1.59 µM. In the case of `O=C(N/N=C/c1cc([N+](=O)[O-])ccc1O)/C(=C\c1cccs1)NC(=O)c1ccccc1`, the EC50 is 1.81 µM. The figure for `Cc1nc2ccccc2c(=O)n1/N=C/c1ccc2ccccc2c1O` is > 15 µM (inactive); for `O=C(O)CCn1cc(/C=C/C(=O)c2ccc(Cl)cc2)c(-c2cccc(Br)c2)n1` it is 3.68 µM. Next, `CC1CCN(c2nc(-c3ccc(F)cc3)cc(C(F)(F)F)n2)CC1`: 1.71 µM; `C/C(=N\NC(=O)c1nnn(-c2nonc2N)c1CN(C)c1ccccc1)c1ccccc1O`: 2.75 µM; `Cc1ccc(-c2nn(-c3ccccc3)cc2/C=N/n2c(-c3cccs3)n[nH]c2=S)cc1`: 1.95 µM. As for `CC(C)(C)CC(=O)N1CCC(c2nc3c(nnn3Cc3c(F)cccc3Cl)c(=O)[nH]2)CC1`, the concentration for a half-maximal effect (EC50) is 2.8 µM. Regarding `O=C(CNC(=O)c1ccccc1Br)N/N=C\c1cc([N+](=O)[O-])cc(Br)c1O`, the concentration giving a half-maximal response (EC50) is 8.11 µM. In the case of `NNC(=O)/C(=N/Nc1ccccc1)S(=O)(=O)c1ccc(Cl)cc1`, the concentration giving a half-maximal response (EC50) is 8.15 µM.

Take `O=C(NCc1nc(-c2ccc(C(F)(F)F)cc2)no1)Nc1cc(Cl)cc(Cl)c1`: the EC50 is 2.31 µM. On to `O=S(=O)(c1ccccc1)N1CCN=C1SCc1c(F)cccc1Cl`, for which the concentration for a half-maximal effect (EC50) is 8.15 µM.

As for `CCOC(=O)C1CCN(C2=C(NS(=O)(=O)c3ccc(Cl)cc3)C(=O)c3ccccc3C2=O)CC1`, the EC50 was 7.15 µM.

As to `O=C(/C=C/c1cccc(C(F)(F)F)c1)Nc1cccc(C(F)(F)F)c1`, the EC50 was 3.3 µM. On to `Cc1cccc(/C=c2\s/c(=C\C(=O)C(C)(C)C)[nH]c2=O)c1`, for which the EC50 is 2.34 µM. As to `O=C(Nc1nnc(SCc2ccccc2Cl)s1)C1COc2ccccc2O1` (stereo not given), the EC50 is 7.21 µM.

For the molecule `CCOC(=O)c1sc(NC(=O)Nc2cccc(Cl)c2)cc1C`, the EC50 was 2.39 µM.

Turning to `O=c1cc(C(F)(F)F)[nH]c2c(C(F)(F)F)cccc12`, the EC50 was 2.34 µM. Turning to `Fc1ccc(N2CCN(Cc3cn[nH]c3-c3ccccc3)CC2)cc1`, the EC50 was > 15 µM (inactive). Next, `O=C(c1cc(-c2cccs2)nc2ccccc12)N1CCN(c2ccccc2O)CC1`: 13.4 µM; `CC1=CC(C)(C)n2c(O)c(N=N)c3c(C)c(C)cc1c32`: 5.67 µM; `CCOC(=O)CCC(=O)O[C@H]1[C@H](O[C@@H]2[C@@H](C)[C@H](O[C@H]3C[C@@](C)(OC)[C@@H](O)[C@H](C)O3)[C@@H](C)C(=O)O[C@H](CC)[C@@](C)(O)[C@H](O)[C@@H](C)C(=O)[C@H](C)C[C@@]2(C)O)O[C@H](C)C[C@@H]1N(C)C`: less than 0.06 µM. As to `COc1cccc(-c2cc(C(F)(F)F)nc(N3CCCCC3)n2)c1`, the 50% effective concentration (EC50) was 4.86 µM. Turning to `COc1ccc(-c2cc(C(F)(F)F)nc(NCc3cccs3)n2)cc1`, the EC50 is 4.95 µM. The figure for `O=Cc1cc(N=Nc2ccccc2Cl)ccc1O` is 2.96 µM; for `C[C@]12CCC(O)CC1CCC1C2CC[C@]2(C)C(c3cc(C(F)(F)F)n[nH]3)CCC12` (stereo not given in full) it is 1.9 µM. As for `Oc1ccc(Br)cc1/C=N/Nc1nc(N2CCCCC2)nc(N2CCOCC2)n1`, the EC50 is 3.81 µM. On to `CCCCCCn1c(=O)c(C(=O)Nc2ncccc2C)c(O)c2ccccc21`, for which the EC50 was 0.507 µM. Take `COc1cccc(/C=N/Nc2ccc([N+](=O)[O-])cn2)c1O`: the concentration giving a half-maximal response (EC50) is 0.637 µM. As to `O=C(Nc1nc2ccccc2n1Cc1ccccc1)c1ccco1`, the EC50 was 2.91 µM. The figure for `O=C(CCc1ccccc1)NNC(=S)NC(=O)c1ccccc1` is 1.81 µM; for `Cc1nnc(SC(C(=O)Nc2cc(Cl)cc(Cl)c2)c2ccccc2)[nH]c1=O` (stereo not given) it is 10.6 µM; for `N#C/C(=C(/O)c1ccc([N+](=O)[O-])o1)c1nc2ccccc2[nH]1` it is 2.05 µM.

`O=C1NC[C@@H](Cc2cccc3ccccc23)N(CCCCC2CCCCC2)C1=O`: the EC50 is 3.93 µM. The figure for `COc1ccc(C2=NOC(CNC(N)=S)C2)cc1` (stereo not given) is 3.41 µM; for `Cc1[nH]n(-c2ccccc2)c(=O)c1/C=N\NC(=O)C1COc2ccccc2O1` (stereo not given) it is 1.37 µM.

For `Cc1ccc(-c2cc(-c3ccccc3)nc(N(C)N)n2)cc1`, the EC50 was 6.06 µM. Take `CC1Cc2ccccc2N1C(=S)NC(=O)c1ccc(Cl)cc1Cl` (stereo not given): the EC50 was 4.26 µM. `O=C(Nc1nc(-c2ccccc2)c(-c2ccccc2)o1)c1ccc(F)cc1`: the concentration giving a half-maximal response (EC50) was 0.561 µM. The figure for `COC(=O)C(C)NC(=S)N1CCN(c2c(F)cc3c(=O)c(C(=O)O)cn(C4CC4)c3c2OC)CC1C` (stereo not given) is 3.31 µM. As for `CCN(CC)c1nc(Nc2ccc([N+](=O)[O-])cc2)nc(N(CC)CC)n1`, the concentration for a half-maximal effect (EC50) is 3.15 µM.

As to `Cc1ccc(-c2cc(-c3cccc(F)c3)n[nH]2)c(O)c1`, the half-maximal effective concentration (EC50) was 4.32 µM. As to `Cc1cc2oc(=O)cc(CN(C)Cc3ccccc3)c2cc1C(C)C`, the EC50 was 4.52 µM. With `N#Cc1c(N)nc(Sc2ccc(Cl)cc2)c(C#N)c1-c1ccccc1Cl`, the EC50 was 6.03 µM. For the molecule `O=C(CCCN1C(=O)/C(=C\c2cccs2)SC1=S)Nc1cc([N+](=O)[O-])ccc1O`, the EC50 is 5.04 µM. Next, `Cc1cc(Cl)ccc1NC(=S)NCCC(c1ccccc1)c1ccccc1`: 11.1 µM. In the case of `O=C(Cc1csc(NC(=O)Nc2cccc(Cl)c2)n1)NCc1cccnc1`, the concentration for a half-maximal effect (EC50) is 4.4 µM. For `CCN(CC)c1ccc(NC(=O)c2c(C)noc2C)cc1`, the EC50 is > 15 µM (inactive). Regarding `O=c1c2ccccc2sn1-c1ccccc1`, the EC50 was 1.11 µM. On to `COc1ccc(Cl)cc1/C=C/c1ccc2cccc(O)c2n1`, for which the concentration giving a half-maximal response (EC50) was 0.388 µM. For `Oc1cccc(-c2nc3ccc4ccccc4c3c3c2CCC3)c1`, the 50% effective concentration (EC50) is 8.4 µM. As for `O=C(Cn1sc2ccccc2c1=O)NC12CC3CC(CC(C3)C1)C2`, the EC50 is 1.12 µM. For `CCN1/C(=C/c2ccc3ccccc3[n+]2CC)C=Cc2ccccc21`, the EC50 is 6.08 µM. In the case of `CC(C)C[C@H](NC(=O)c1nc[nH]c1C(=O)N1CCc2ccccc2C1)C(=O)OCc1ccccc1`, the EC50 is 9.87 µM. With `Cc1cc(NC(=O)c2ccc3c(c2)OCCO3)ccc1NC(=O)c1cc2ccccc2o1`, the EC50 was 10.1 µM. For the molecule `Cn1c2ccccc2c(=O)c2cc(C#Cc3ccc(N)cc3)ccc21`, the EC50 was 1.35 µM. As to `Cc1cccc2nc(COc3ccc4ccccc4c3Br)cn12`, the EC50 was 4.94 µM. As for `CN1C(=O)/C(=C/c2ccccc2F)Sc2ccc(C(=O)N3CCCC3)cc21`, the half-maximal effective concentration (EC50) was 1.06 µM.

As for `CC(C)(C)c1ccc(CSc2cnn(C(C)(C)C)c(=O)c2Cl)cc1`, the EC50 was 4.99 µM. With `CCOc1ccccc1C(=O)OCC(=O)Nc1nnc(-c2ccccc2)o1`, the concentration for a half-maximal effect (EC50) was 6.94 µM.

Turning to `N#CC1=C(N)SC(N)=C(C#N)C1c1c(Cl)cccc1Cl`, the concentration giving a half-maximal response (EC50) is 8.78 µM. On to `NC(=O)c1ccc(NC(=O)COC(=O)c2c3c(nc4ccccc24)/C(=C\c2ccc4c(c2)OCO4)CCC3)cc1`, for which the half-maximal effective concentration (EC50) was 5.31 µM. On to `CC(C)c1ccc(NC(=O)NC(C)c2ccc3c(c2)OCO3)cc1` (stereo not given), for which the EC50 was > 15 µM (inactive).
